For series [1] the following is noted: stated in the introduction, no reference given; cited from earlier work.
The subject of series [2] is right hind ankle swelling after carrageenan injection into the paw. The series can be described thus: Anti-inflammatory pharmacodynamics (carrageenan paw model, right hind ankle perimeter). Type of series: in vivo, male Sprague–Dawley rats. The following applies: rats, oral, 40 mg/kg NMS. On the procedure: Right hind ankle perimeter of rats was ascertained to study the anti-inflammatory biological effect of […] or NMS/E-CMSN. Twelve male Sprague-Dawley rats (200 ± 20 g) were separated into four groups (Group A: Normal saline; Group B: NMS; Group C: NMS/CMSN; Group D: NMS/E-CMSN) and then fasted overnight before experiment. The rats in Group B, Group C and Group D were administered orally with corresponding nanoparticles containing 40 mg/kg NMS, while the rats in Group A were administered orally with normal saline. Afterwards, the perimeters of right hind ankles were ascertained. After half an hour, 0.1 mL 1% carrageenan solution was injected subcutaneously into the paw of each rat. […] Then, the following parameters were calculated. (2) Repressionrate(%)=([…]0)positive (3) Swelling rate(%)=Ct-C0/C0×100 where C0 denotes original perimeter of right hind ankle; Ct is the measured perimeter of right hind ankle.
Background: The carrageenan paw model is a standard test of acute inflammation.

Series [3] in a line: Contact angle measurement (wetting property). The following applies: pH 6.8 PBS; pH 6.8 PBS including trysin (Figure 6). The class given is physicochemical. On the procedure:
To study the wettability differences after loading NMS into the two carriers, dynamic contact angle measurement was performed using JCY series (Shanghai, China). The working conditions covered: Automatic contact angle meter model, pressurized tablet of sample, as well as a drop of dissolution medium (2 μL). The measurement was started when dissolution medium dropped onto the tablet.

Series [4] in a line: In vivo pharmacokinetics after oral (intragastric) administration. Conditions: male, Wistar, rat, rats, 40 mg/kg NMS, plasma. On the procedure:
9 Male Wistar rats weighing 200 ± 20 g were randomly split into three groups (A group, NMS; B group, NMS/CMSN; C group, NMS/E-CMSN) and fasted for 12 h but given free access to water prior to the experiment. The three samples were suspended in 1.5 mL normal saline with the drug dose of 40 mg/kg and then orally administered (intragastric administration) to rats. Blood media (0.5 mL) of each animal was collected via the suborbital vein at different time intervals after administration and immediately centrifuged at 8000 rpm for 10 min to collect plasma. Subsequently, the obtained plasma was then stored at […] until analysis. 200 μL plasma sample was mixed with 80 μL of an internal standard solution (0.5 mg/mL) and 400 μL acetonitrile. The mixture was vortexed for 2 min. After centrifugation at 10,000 rpm for 5 min, the supernatant of each sample (20 μL) was subjected to HPLC analysis. The working conditions for HPLC analysis included: Mobile phase: methanol: pH 7.3 potassium dihydrogen phosphate buffer (65:35, v/v); Column temperature: 30 °C; Analysis wavelength: 370 nm; Flow rate: 1.0 mL/min.

With `CS(=O)(=O)Nc1ccc([N+](=O)[O-])cc1Oc1ccccc1` [NMS, nimesulide], in series [1], the LogP value was 3.79. Further, in series [2], the “time at which anti-inflammatory function started” value came out at 0.5 h. In addition, the “anti-inflammatory effect according to swelling rate profiles” value in series [2] (0.5-4 h) was “exerted anti-inflammatory pharmacodynamics effect”. In series [3], the “wetting property / contact angle” value is “poor water wetting property”. In series [4] (n = 3), the AUC(0-t) – broadly, exposure summed from dosing to a finite time, without extrapolation to infinity – turned out to be 199 ± 66.6 µg·h/mL; the highest level (Cmax) was 25400 ± 9680 ng/mL; the Tmax – broadly, the time from dosing to the highest level – was 4 h. Besides, the MRT last in series [4] (n = 3, read-out: MRT(0–t)) was 5.73 ± 0.354 h. Besides, the half-life in series [4] (n = 3, read-out: t1/2z (converted)) was 5.08 ± 2.81 h.
